Assay results: US12377069B2, “Compounds, compositions, methods of using, and methods for preparing compounds” (UNIVERSITY OF LOUISVILLE RESEARCH FOUNDATION, INC., priority 2018, dated 2025)

Experiments:
[1] = Stability at gastric pH and with digestive enzymes; type: in vitro ADME; details: pH 2.0; enzymes 100 U/ml, 12 h, 37° C.; 0.2 mg/ml
Procedure: FIG. 1: UAS03 is a potent anti-inflammatory structural analogue of UroA and induces tight junction proteins. (A) Chemical structures of UroA, UAS03. UroA/UAS03 stability was examined in the presence of gastric pH 2.0 and digestive enzymes. UroA and UAS03 (0.2 mg/ml) were incubated with digestive enzymes (esterases and proteases, 100 U/ml) for 12 h at 37° C. and compound levels were quantified. (B) BMDMs were stimulated with LPS (50 ng/ml) without or with UroA (blue line)/UAS03 (purple line) (0.1, 1, 10, 25 and 50 μM) for 6 hours. IL-6 and TNF-α levels in supernatants were measured. (C) C57BL/6 mice (n=3-4) were pretreated with UroA (20 mg/kg) and UAS03 (20 mg/kg). After 4 hours, LPS (2 mg/kg) was injected intraperitoneally. Post 4 h of LPS administration, serum levels of IL-6 and TNF-α was measured. […] (G) The fold changes in mRNA levels of claudin 4 (Cldn4), occludin (Ocln) and Zona occludens 1 (ZO1) in HT29 cells were determined by RT PCR method. (H) UroA/UAS03 induced protein expression of Cldn4, Ocln and ZO1 in HT29 cells were determined by immunoblots and quantified by Image J software. […] The green intensity (n=15-20 cell membrane regions) was measured. […] The protein lysates were prepared from colon scrapes and subjected to immunoblots and detected the expression of the (J) Nrf2, HO1, Cldn4 and (K) AhR using appropriate antibodies as described in methods. […]

[2] = system: human primary monocytes; assay: LPS and EtOH induced TNF-α in human primary monocytes; type: cell-based; details: EtOH 25 mM 7 days; LPS 50 ng/ml
Procedure: FIG. 11: UroA reduces the LPS and EtOH induced TNF-α in human primary monocytes. (A) Human primary monocytes treated with UroA and LPS (50 ng/ml) for 6 h. The TNF-α in supernatant was measured. (B) Human primary monocytes were exposed to EtOH (25 mM) for 7 days. LPS (50 ng/ml) and UroA were added at day 6 and incubated for 24 h. The TNF-α levels in supernatant were measured using standard ELISA methods. Statistics performed using unpaired t-test using Graphpad Prism software. Error bars, ±SEM; ***p<0.001; **p<0.01
UroA reduces the LPS and EtOH induced TNF-α in human primary monocytes. Peripheral blood monocytes from chronic alcoholism patients produce increased spontaneous inflammatory mediators such as TNF-α, IL-6, IL-10 and IL-12. To mimic this condition, healthy peripheral blood monocytes were exposed for one week and tested whether UroA/UAS03 reduce the LPS-induced TNF-α.

Structure (SMILES) | stability at gastric pH and in the presence of gastric enzymes (esterases and proteases) [1] | LPS-induced TNF-α in chronically EtOH exposed human monocytes [2]
Oc1ccc2c(c1)COc1cc(O)ccc1-2 [UAS03, 6H-benzo[c]chromene-3,8-diol] | stable | –
O=c1oc2cc(O)ccc2c2ccc(O)cc12 [UroA, 3,8-dihydroxy-6H-dibenzo[b,d]pyran-6-one] | – | reduced
